The text below walks through data of patent US20250145715A1, “B7-H3 TARGETING FUSION PROTEINS AND METHODS OF USE THEREOF” (GT Biopharma, Inc., priority 2021, published 2025).

In assay [1] the test system is HNSCC cell lines (Cal27 trio, Cal33 trio). Put plainly: NK cell CD107a / IFN-γ flow cytometry against HNSCC lines. It counts as cell-based, human. As to the method:
FIGS. 27A-27D illustrate the functional validation of B7-H3 TriKE. FIG. 27A is a graph illustrating CD107a expression in PBMCs from healthy donors incubated with Cal27 trio. FIG. 27B is a graph illustrating intracellular IFN-γ production in PBMCs from healthy donors incubated with Cal27 trio. FIG. 27C is a graph illustrating CD107a expression in PBMCs from healthy donors incubated with Cal33 trio. FIG. 27D is a graph illustrating intracellular IFN-γ production in PBMCs from healthy donors incubated with Cal33 trio.
NK cell responses against HNSCC lines in the presence of the B7-H3 TriKE were assessed through either flow cytometry based functional assays, to evaluate NK cell degranulation and cytokine secretion, or IncuCyte imaging assays, to directly assess target killing. NK cell degranulation and IFN-gamma production of B7-H3 TriKE-treated samples were higher compared to that of control samples treated with B7-H3 single domain or IL-15 alone. […] Ongoing experiments will evaluate the functionality and efficacy of the B7-H3 TriKE in vivo.
Frozen PBMCs (N=3) from healthy donors were incubated for 5 hours with (A-B) Cal27 trio and […] Cal33 trio (each trio consisting of a HNSCC WT line and 2 clones of HNSCC FANCA KO lines) in different treatments: no treatment or 3 nM IL-15, MOPC, B7-H3 SD and B7-H3TriKE to evaluate CD107a expression (as a marker for degranulation) and intracellular IFN-γ production. Error bars indicate standard error of mean, and statistical significance was determined as *p<0.05, **p<0.01, ***p<0.001 and ****p<0.0001
On the technique in general: A flow cytometer gives signals particle by particle.

The test system of assay [2] is C4-2 prostate cancer cells. Put plainly: NK cell CD107a / IFNγ flow cytometry against C4-2. It counts as cell-based, human. Conditions: normal donor and prostate cancer patient NK cells, vs controls. From the text:
FIG. 15A is a graph showing pooled analysis of proportion of NK cells from healthy donors or prostate cancer patients expressing CD107a+ (top) or IFNγ (bottom) against C4-2 targets (N=9 for healthy donors, N=3 for patients). FIG. 15B is a graph showing pooled analysis of proportion of NK cells from healthy donors or prostate cancer patients expressing CD107a+ (top) or IFNγ (bottom) against DU145 targets (N=9 for healthy donors, N=3 for patients). FIG. 15C is a graph showing pooled analysis of proportion of NK cells from healthy donors or prostate cancer patients expressing CD107a+ (top) or IFNγ (bottom) against LNCaP targets (N=9 for healthy donors, N=3 for patients). FIG. 15D is a graph showing pooled analysis of proportion of NK cells from healthy donors or prostate cancer patients expressing CD107a+ (top) or IFNγ (bottom) against PC3 targets (N=9 for healthy donors, N=3 for patients). * p<0.05, ** p<0.01, *** p<0.001, and **** p<0.0001.
FIG. 23A is a graph illustrating percent CD107a+ NK cells in PBMCNK alone in the presence of 0.3 nM TriKE. […]
ADCC was measured in a flow cytometry assay by evaluating degranulation via CD107a (lysosomal-associated membrane protein LAMP-1) and intracellular IFNγ production. […] Samples were washed and evaluated in an LSRII flow cytometer (BD Biosciences, San Jose, CA, USA). […]

Setting [3] is: vs B7-H3 single domain or IL-15 alone.

Take “B7-H3 TriKE: camelid nanobodies targeting CD16 and B7-H3 joined by IL-15 and two linkers; sequence table equates the name with cam1615B7-H3”: the “NK cell activity (CD107a, IFN-γ) against HNSCC” value in assay [1] (3 nM, 5 hours, Cal27 trio and Cal33 trio, healthy donor PBMCs) was “induced NK cell activity against HNSCC”. Also, in assay [1] (setting [3]), the “NK cell IFN-gamma production against HNSCC” value is reported as “higher” and the “NK cell degranulation against HNSCC” value was “higher”.
Consider “cam1615B7-H3: second-generation TriKE: humanized camelid anti-CD16 VHH, human wild-type IL-15, anti-B7-H3 mAb 376.96 scFv; SEQ ID NO:1”, for which, in assay [2], the “NK cell IFNγ production against C4-2” value is on record as “enhanced” and the “NK cell degranulation (CD107a) against C4-2” value is given as “enhanced”.
